Values quoted from earlier work in patent US20240315972A1, “PROTEIN CONTAINING BIO-ACTIVE COMPOSITIONS COMPRISING CELLULOSE MICROPARTICLE CARRIERS” (priority 2021, published 2024).

Assays:
[1] = system: herpes simplex virus type 1 (HSV-1); conditions: in vitro
large native proteins = conditions: versus its mesophilic analogue
[2] = system: respiratory syncytial virus (RSV); conditions: in vitro
[3] = system: interferon (IFN) signaling; conditions: 5 BAEE U/mL (4.5 μg/mL porcine trypsin)

Trypsin
Efficacy against HSV-1 [1]: high efficacy
Effectiveness in degrading large native proteins relative to mesophilic analogue (large native proteins): 3-12 times
Efficacy against RSV [2]: high efficacy
Effect on interferon (IFN) signaling [3]: strongly inhibited
